Measured values taken from ChEMBL document CHEMBL1770081, “Inhibition and structural reliability of prenylated flavones from the stem bark of Morus lhou on β-secretase (BACE-1)” (Bioorg Med Chem Lett, 2011).

Legend:
Beta-secretase 1 [1] = biological target: T1, Beta-secretase 1 (Homo sapiens, UniProt P56817); experiment: Inhibition of human recombinant BACE-1 expressed in HEK293 cells assessed as inhibition of amyloid precursor protein cleavage into amyloid beta after 60 mins using Rh-EVNLDAEFK-Quencher as a substrate by FRET assay; assay type: cell-based
T1 sequence (P56817 whole entry): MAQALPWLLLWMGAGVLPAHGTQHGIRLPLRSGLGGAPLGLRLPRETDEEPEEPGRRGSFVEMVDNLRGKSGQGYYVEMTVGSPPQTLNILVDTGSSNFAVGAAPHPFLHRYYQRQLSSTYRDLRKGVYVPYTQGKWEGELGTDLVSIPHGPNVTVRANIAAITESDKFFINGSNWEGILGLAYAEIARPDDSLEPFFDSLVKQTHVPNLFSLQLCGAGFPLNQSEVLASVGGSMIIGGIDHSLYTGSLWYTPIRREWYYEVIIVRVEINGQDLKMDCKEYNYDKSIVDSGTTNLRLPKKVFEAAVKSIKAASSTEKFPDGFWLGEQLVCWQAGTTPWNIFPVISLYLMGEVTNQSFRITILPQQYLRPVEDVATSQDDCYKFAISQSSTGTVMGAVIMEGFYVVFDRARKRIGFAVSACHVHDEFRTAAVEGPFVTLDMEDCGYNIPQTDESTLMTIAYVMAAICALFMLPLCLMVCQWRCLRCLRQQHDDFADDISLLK

Beta-secretase 1 [2] = biological target: T1, Beta-secretase 1; experiment: Noncompetitive inhibition of human recombinant BACE-1 by Dixon plot analysis

Row | IC50 (Beta-secretase 1 [1]) [µM] | Ki (Beta-secretase 1 [2]) [µM] | Compound
1 | 101 | – | CC(C)=CC1Oc2cc(O)ccc2-c2oc3c4c(cc(O)c3c(=O)c21)OC(C)(C)C=C4 (configuration not stated) [CYCLOMORUSIN]
2 | 5.3 | 10.6 | CC(C)=CCc1c(-c2ccc(O)c3c2OC(C)(C)C=C3)oc2cc(O)cc(O)c2c1=O [KUWANON A]
3 | 3.4 | 2.2 | CC(C)=CCc1c(-c2ccc(O)cc2O)oc2c(CC=C(C)C)c(O)cc(O)c2c1=O [KUWANON C]
4 | 103 | – | C/C(=C/Cc1c(-c2ccc(O)cc2O)oc2c3c(cc(O)c2c1=O)OC(C)(CO)C=C3)CO (configuration not stated) [MORMIN]
5 | 136 | – | CC(C)(O)CCc1c(-c2ccc(O)cc2O)oc2c3c(cc(O)c2c1=O)OC(C)(C)C=C3 [MORUSINOL]
6 | 59.4 | 64.1 | CC(C)=CCc1c(-c2ccc(O)cc2O)oc2c3c(cc(O)c2c1=O)OC(C)(C)C=C3 [MORUSIN]
7 | 146 | – | CC1(C)C=Cc2c(cc(O)c3c(=O)c4c(oc23)-c2ccc(O)cc2OC(C(C)(C)O)C4)O1 (configuration not stated) [NEOCYCLOMORUSIN]
8 | 60.6 | 82.6 | O=c1cc(-c2ccc(O)cc2O)oc2cc(O)cc(O)c12 [NORARTOCARPETIN]
